Data from ChEMBL document CHEMBL1201862, “PubChem BioAssay data set” (2004).
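Dose response: 5 concentrations. Exposure: 48 h. Format: 96-well plates. Endpoint: linear interpolation; highest concentration if not reached. Here, GI50 denotes the concentration required for 50% inhibition of growth.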 Active and inactive are the calls of the source. No stated cut-off is given here; in the data, active = GI50 up to about 1.1 µM and inactive = higher.

Legend:
Assay in all cases: NCI-60 cell line screen, 48 h
A498 = tested on: A498
CAKI-1 = tested on: CAKI-1
HCT-116 = tested on: HCT-116
HCT-15 = tested on: HCT-15
HL-60 = tested on: HL-60
HOP-92 = tested on: HOP-92
Hs-578T = tested on: Hs-578T
LOX IMVI = tested on: LOX IMVI
MDA-MB-435 = tested on: MDA-MB-435
NCI-H522 = tested on: NCI-H522
OVCAR-5 = tested on: OVCAR-5
PC-3 = tested on: PC-3
SF-268 = tested on: SF-268
SK-MEL-28 = tested on: SK-MEL-28
SK-OV-3 = tested on: SK-OV-3
SR = tested on: SR
U-251 = tested on: U-251
UACC-257 = tested on: UACC-257
UACC-62 = tested on: UACC-62
RXF 393 = tested on: RXF 393

Compound | GI50 (A498) | GI50 (CAKI-1) | GI50 (HCT-116) | GI50 (HCT-15) [µM] | GI50 (HL-60) | GI50 (HOP-92) | GI50 (Hs-578T) | GI50 (LOX IMVI) | GI50 (MDA-MB-435) | GI50 (NCI-H522) | GI50 (OVCAR-5) | GI50 (PC-3) | GI50 (SF-268) | GI50 (SK-MEL-28) | GI50 (SK-OV-3) | GI50 (SR) | GI50 (U-251) | GI50 (UACC-257) | GI50 (UACC-62) | GI50 (RXF 393)
O=C(O)Cc1ccc(Oc2nc3ccccc3nc2C(=O)O)cc1 | > 100 µM (inactive) | 96.8 µM (inactive) | > 100 µM (inactive) | > 100 | 0.0305 µM (active) | 79.1 µM (inactive) | > 100 µM (inactive) | > 100 µM (inactive) | 12.8 µM (inactive) | > 100 µM (inactive) | > 100 µM (inactive) | > 100 µM (inactive) | > 100 µM (inactive) | > 100 µM (inactive) | > 100 µM (inactive) | 0.0187 µM (active) | > 100 µM (inactive) | > 100 µM (inactive) | > 100 µM (inactive) | 
Cc1cc(-c2ccc(Cl)cc2)c(C#N)c(=S)n1C1OC(CO)C(O)C(O)C1O (centres undefined) | > 100 µM (inactive) | > 100 µM (inactive) | > 100 µM (inactive) | > 100 | > 100 µM (inactive) |  | > 100 µM (inactive) | > 100 µM (inactive) | > 100 µM (inactive) | > 100 µM (inactive) | > 100 µM (inactive) | > 100 µM (inactive) | > 100 µM (inactive) | > 100 µM (inactive) | > 100 µM (inactive) | > 100 µM (inactive) |  | > 100 µM (inactive) | > 100 µM (inactive) | > 100 µM (inactive)
O=C(NCCNCCO)N/N=C/c1ccc([N+](=O)[O-])cc1 | 47.4 µM (inactive) | > 100 µM (inactive) | > 100 µM (inactive) | > 100 | > 100 µM (inactive) |  | 57.1 µM (inactive) |  | > 100 µM (inactive) | > 100 µM (inactive) | > 100 µM (inactive) | > 100 µM (inactive) | > 100 µM (inactive) | > 100 µM (inactive) | > 100 µM (inactive) | > 100 µM (inactive) | > 100 µM (inactive) | > 100 µM (inactive) | > 100 µM (inactive) | 
CN(C)CCNC(=O)c1cccc2c(NC(CCCNC(=N)N)C(=O)O)c3ccccc3nc12 (centres undefined) | 19.8 µM (inactive) |  | 3.93 µM (inactive) | 6.37 | > 100 µM (inactive) | 3.85 µM (inactive) | 11.4 µM (inactive) | 3.85 µM (inactive) | 10.1 µM (inactive) | 3.75 µM (inactive) | 9.95 µM (inactive) | 9.1 µM (inactive) | 9.2 µM (inactive) | 25.7 µM (inactive) | 12.6 µM (inactive) | 1 µM (active) | 14.3 µM (inactive) |  | 15.8 µM (inactive) | 
Oc1ccc(-c2nc(-c3cccnc3)c(-c3ccc(Cl)cc3)[nH]2)cc1O |  | 15.1 µM (inactive) | 11.7 µM (inactive) | 10.3 | 5.05 µM (inactive) |  | 12.2 µM (inactive) | 9.82 µM (inactive) | 13.8 µM (inactive) | 1.13 µM (inactive) | 18.7 µM (inactive) | 9.2 µM (inactive) | 11.5 µM (inactive) | 17.5 µM (inactive) | 12.4 µM (inactive) | > 100 µM (inactive) | 11 µM (inactive) | 15.1 µM (inactive) | 11.2 µM (inactive) | 12.7 µM (inactive)
N=C(NCc1ccccc1)N/N=C\c1ccnc2ccccc12 | 12.5 µM (inactive) |  |  | 16 | 14.3 µM (inactive) | 1.43 µM (inactive) | 18.8 µM (inactive) | 11.5 µM (inactive) | 9.23 µM (inactive) |  | 13.4 µM (inactive) | 15.6 µM (inactive) | 12.3 µM (inactive) | 12 µM (inactive) | 15.5 µM (inactive) | 2.09 µM (inactive) | 15.6 µM (inactive) | 2.35 µM (inactive) | 15.1 µM (inactive) | 
O=C1NC(N2CCCC(CO)C2)=N/C1=C\c1ccccc1 (centres undefined) |  | > 100 µM (inactive) | > 100 µM (inactive) | > 100 | > 100 µM (inactive) | > 100 µM (inactive) | > 100 µM (inactive) | > 100 µM (inactive) | > 100 µM (inactive) | > 100 µM (inactive) | > 100 µM (inactive) | > 100 µM (inactive) | > 100 µM (inactive) | > 100 µM (inactive) | > 100 µM (inactive) | > 100 µM (inactive) | > 100 µM (inactive) | > 100 µM (inactive) | > 100 µM (inactive) | > 100 µM (inactive)
CCOC(=O)C(C)NC(=O)C(C)NC(=O)C(C)NC(=O)C(C)NC(=O)C(C)NC(=O)OCc1ccccc1 (centres undefined) |  | > 100 µM (inactive) | > 100 µM (inactive) | > 100 | > 100 µM (inactive) |  | > 100 µM (inactive) | > 100 µM (inactive) | > 100 µM (inactive) | > 100 µM (inactive) | > 100 µM (inactive) | > 100 µM (inactive) | > 100 µM (inactive) | > 100 µM (inactive) | > 100 µM (inactive) | > 100 µM (inactive) | > 100 µM (inactive) | > 100 µM (inactive) | > 100 µM (inactive) | > 100 µM (inactive)
COC([C@@H](OC(=O)c1ccccc1)[C@H](OC(=O)c1ccccc1)C(O)COC(=O)c1ccccc1)n1cc(C)c(=O)[nH]c1=O (some centres undefined) |  |  | 23.6 µM (inactive) | 27 |  |  | 28.4 µM (inactive) | 15.1 µM (inactive) | 20 µM (inactive) | 20.4 µM (inactive) | 19.1 µM (inactive) | 4.83 µM (inactive) | 29.7 µM (inactive) | 39.3 µM (inactive) | 40.6 µM (inactive) | 29.7 µM (inactive) | 14.5 µM (inactive) | 34.2 µM (inactive) | 17.3 µM (inactive) | 14 µM (inactive)
O=C1c2scc(-c3ccc(F)cc3)c2-n2cccc21 | 1.47 µM (inactive) | 10.3 µM (inactive) | 18.2 µM (inactive) | 32.1 |  |  | 20.3 µM (inactive) | 24.6 µM (inactive) | 11.1 µM (inactive) | 17.3 µM (inactive) | > 100 µM (inactive) | 29.9 µM (inactive) | 36.4 µM (inactive) | 29.2 µM (inactive) | 40.6 µM (inactive) | 11 µM (inactive) | 15.7 µM (inactive) | 71 µM (inactive) | 18.6 µM (inactive) | 26.1 µM (inactive)
COC(=O)C1c2cc3c(c(O)c2CCC1(C)O)C(=O)c1c(O)cc2c(c1C3=O)OC1OC2(C)C(O)C(N(C)C)C1O (centres undefined) |  | < 0.01 µM (active) | 0.245 µM (active) | 0.394 | 1.36 µM (inactive) |  | 0.338 µM (active) | 0.226 µM (active) | 1.01 µM (active) | 1.1 µM (active) | 0.263 µM (active) | 0.474 µM (active) | 0.906 µM (active) | 3.15 µM (inactive) | 1.91 µM (inactive) | < 0.01 µM (active) | 0.436 µM (active) | 0.108 µM (active) | 0.421 µM (active) | 0.205 µM (active)
